The text below walks through data of patent US4061748A, “7-(α-(4 -Hydroxy-1,5-naphthyridine-3-carbonamido)-α-phenylacetamido) cephalosporin derivatives” (Sumitomo Chemical Company, Limited, priority 1975, dated 1977).

The nature of data set [1]: Antibiotic serum concentrations in mice following subcutaneous administration (disc method bioassay). The format is in vivo, ICR-SLC strain mice. The following applies: mouse, sc, 50 mg/kg; for Cmax: read-out: Peak concentration. As to the method:
The antibiotic serum concentrations of the six cephalosporins following subcutaneous administration at 50 mg/kg to ICR-SLC strain mice are shown in Table 2.
The bioassay was carried out according to the disc method using
Pseudomonas aeruginosa.

Data set [2] deals with Escherichia coli No. 37. The data set can be described thus: Median protective dose against intraperitoneal infection in mice. The format is in vivo, Escherichia coli; male ICR-SLC strain mice. As to conditions: sc; Escherichia coli No. 37, intraperitoneal infection; two subcutaneous treatments, 1 and 4 hours after infection; read-out: PD50. The source says: (§1) The relative activities of the compounds of the present invention, Compound (A) and Compound (B) against various intraperitoneal infections in mice evaluated by mean median protective doses (subcutaneously administered) are shown in Table 3.
(§2) For each test, eight male ICR-SLC strain mice were used at each dose

For data set [3], the system named is Pseudomonas aeruginosa T. The data set is described as above. The format is in vivo, Pseudomonas aeruginosa; male ICR-SLC strain mice. As to conditions: sc, two subcutaneous treatments, 1 and 4 hours after infection, read-out: PD50.
Description: as §1, §2

Data set [4] concerns Enterobacter aerogenes No. 75. The description is as above. The following applies: Klebsiella aerogenes, sc; Enterobacter aerogenes No. 75, intraperitoneal infection; two subcutaneous treatments, 1 and 4 hours after infection; read-out: PD50. The format is in vivo, Enterobacter aerogenes; male ICR-SLC strain mice.
Description: as §1, §2

The next data set has as its system Escherichia coli NIHJ. Kind of data set: Minimum inhibitory concentration, nutrient broth dilution method. The format is cell-based. The protocol:
(§3) The minimum inhibitory concentrations obtained with the example compounds, Compound (A) and Compound (B), against the following organisms representing 6 genera are shown in Table 1.
(§4) MIC was determined by the nutrient broth dilution method.

The subject of data set [5] is Enterobacter aerogenes No. 75. Described as above. It counts as cell-based. The following applies: Klebsiella aerogenes. The protocol: as §3, §4
The test system of a further data set is Serratia No. 72. The data set is described as above. It counts as cell-based. The protocol:
as §3, §4

The subject of data set [6] is Pseudomonas aeruginosa T. Described as above. It counts as cell-based. The protocol:
as §3, §4

In data set [7] the test system is Proteus mirabilis GN 2425. The description is as above. As to conditions: GN2425. It counts as cell-based. The protocol: as §3, §4
Data set [8] concerns Klebsiella pneumoniae PCI 602. The description is as above. The format is cell-based. As to conditions: PCI602. The protocol:
as §3, §4

Data set [9] concerns Serratia No. 75. The data set can be described thus: Minimum inhibitory concentration, nutrient broth dilution method (Table 3). The format is cell-based. As to the method:
as §4
(Broth dilution looks for growth in wells or tubes with falling amounts of substance.)

The subject of data set [10] is Escherichia coli No. 37. The description is as above. It counts as cell-based. As to the method:
as §4

The test system of data set [11] is Serratia No. 75. The data set can be described thus: Median protective dose against intraperitoneal infection in mice. It counts as in vivo, Serratia; male ICR-SLC strain mice. The following applies: sc; Serratia No. 75, intraperitoneal infection; two subcutaneous treatments, 1 and 4 hours after infection; read-out: PD50.
Description: as §1, §2

Molecules are shown by their SMILES. Values after ≈ are worked out from the molar mass of the structure shown.

A word on the MIC: it is the least concentration at which growth counts as inhibited. A lower MIC goes with greater potency. `CC(=O)OCC1=C(C(=O)O)N2C(=O)C(NC(=O)[C@H](NC(=O)c3cnc4ccccc4c3O)c3ccccc3)C2SC1` (stereo partly drawn) [Compound (A), sodium 7-[D-α-(4-hydroxyquinoline-3-carboxyamino)-α-phenylacetamido] cephalosporanate, reference compound]: the Cmax in data set [1] is less than 900 ng/mL. In addition, the ED50 is more than 200 mg/kg in the data set on Escherichia coli No. 37 [2], more than 100 mg/kg in the data set with Pseudomonas aeruginosa T [3], 200 mg/kg in data set [4] and more than 150 mg/kg with Serratia No. 75 [11]. The MIC against Escherichia coli NIHJ turned out to be 6.25 µg/mL; in [5] it was 25 µg/mL; in the data set with Serratia No. 72 it was 100 µg/mL; with Pseudomonas aeruginosa T [6] it was 12.5 µg/mL; in [7], 25 µg/mL; in [8] it was 0.78 µg/mL. Also, the MIC with Serratia No. 75 [9] was determined as 100 µg/mL; in the data set with Escherichia coli No. 37 [10], 12.5 µg/mL.

By half-life is commonly meant the time needed for the level to fall by half in the phase considered. For the compound `CC(=O)OCC1=C(C(=O)O)N2C(=O)C(NC(=O)[C@H](NC(=O)c3cnccc3O)c3ccccc3)C2SC1` (stereo partly drawn) [Compound (B), sodium 7-[D-α-(4-hydroxypyridine-3-carboxyamino)-α-phenylacetamido] cephalosporanate, reference compound], the half-life in [1] worked out at 30 min. Also, the Cmax in [1] came to 26000 ng/mL. Moreover, the ED50 in the data set with Escherichia coli No. 37 [2] is 170 mg/kg; in the data set on Pseudomonas aeruginosa T [3], 92 mg/kg; in [4], 170 mg/kg; in the data set on Serratia No. 75 [11], more than 150 mg/kg. Besides, the MIC with Escherichia coli NIHJ was 12.5 µg/mL; in data set [5], 25 µg/mL; in the data set on Serratia No. 72, more than 200 µg/mL; in the data set on Pseudomonas aeruginosa T [6], 25 µg/mL; in data set [7] it was 50 µg/mL; in [8] it was 12.5 µg/mL. Further, the minimal inhibitory concentration (MIC) against Serratia No. 75 [9] was more than 200 µg/mL; against Escherichia coli No. 37 [10], 25 µg/mL.

`CC(=O)OCC1=C(C(=O)O)N2C(=O)C(NC(=O)[C@H](NC(=O)c3cnc4cccnc4c3O)c3ccccc3)C2SC1` (stereo partly drawn) [Example 1, 7-[D-α-(4-Hydroxy-1,5-naphthyridine-3-carboxyamido)-α-phenylacetamido] cephalosporanic acid] yielded a half-life in [1] of 25 min. In data set [1], the Cmax was found to be 44000 ng/mL. For the same compound, the ED50 in the data set on Escherichia coli No. 37 [2] is 50 mg/kg; with Pseudomonas aeruginosa T [3], 18 mg/kg; in [4] it was 50 mg/kg; in the data set with Serratia No. 75 [11], 65 mg/kg. For the same compound, the MIC came out at 3.13 µg/mL (≈ 5.42 µM) with Escherichia coli NIHJ; 6.25 µg/mL (≈ 10.8 µM) in [5]; 50 µg/mL (≈ 86.6 µM) against Serratia No. 72; 6.25 µg/mL (≈ 10.8 µM) with Pseudomonas aeruginosa T [6]; 12.5 µg/mL (≈ 21.6 µM) in data set [7]; 1.56 µg/mL (≈ 2.7 µM) in data set [8]. In addition, the MIC was 50 µg/mL (≈ 86.6 µM) in the data set with Serratia No. 75 [9] and 6.25 µg/mL (≈ 10.8 µM) against Escherichia coli No. 37 [10].

In data set [1], `Cc1nnc(SCC2=C(C(=O)O)N3C(=O)C(NC(=O)[C@H](NC(=O)c4cnc5cccnc5c4O)c4ccccc4)C3SC2)s1` (stereo partly drawn) [Example 2, 7-[D-α-(4-Hydroxy-1,5-naphthyridine-3-carboxyamido)-α-phenylacetamido]-3-(2-methyl-1,3,4-thiadiazole-5-yl)thiomethyl-3-cephem-4-carboxylicacid] had a half-life of 35 min. Also, the Cmax in [1] was 38000 ng/mL. The ED50 turned out to be 41 mg/kg with Escherichia coli No. 37 [2], 23 mg/kg in the data set with Pseudomonas aeruginosa T [3], 28 mg/kg in [4] and 30 mg/kg in the data set with Serratia No. 75 [11]. For the same compound, the MIC with Escherichia coli NIHJ stood at 1.56 µg/mL (≈ 2.4 µM); in data set [5], 3.13 µg/mL (≈ 4.82 µM); in the data set with Serratia No. 72, 12.5 µg/mL (≈ 19.2 µM); against Pseudomonas aeruginosa T [6], 6.25 µg/mL (≈ 9.62 µM); in data set [7], 12.5 µg/mL (≈ 19.2 µM); in data set [8], 0.78 µg/mL (≈ 1.2 µM). In addition, the MIC was 12.5 µg/mL (≈ 19.2 µM) in the data set on Serratia No. 75 [9] and 6.25 µg/mL (≈ 9.62 µM) against Escherichia coli No. 37 [10].

Consider `Cn1nnnc1SCC1=C(C(=O)O)N2C(=O)C(NC(=O)[C@H](NC(=O)c3cnc4cccnc4c3O)c3ccccc3)C2SC1` (some centres unmarked) [Example 3], for which the half-life in data set [1] was 25 min. Besides, in [1], the Cmax stood at 24000 ng/mL. Also, the ED50 was determined as 28 mg/kg in the data set on Escherichia coli No. 37 [2], 28 mg/kg with Pseudomonas aeruginosa T [3], 25 mg/kg in data set [4] and 25 mg/kg in the data set with Serratia No. 75 [11]. Moreover, the MIC in the data set on Escherichia coli NIHJ is 0.78 µg/mL (≈ 1.23 µM); in data set [5], 3.13 µg/mL (≈ 4.94 µM); with Serratia No. 72, 12.5 µg/mL (≈ 19.7 µM); against Pseudomonas aeruginosa T [6] it was 12.5 µg/mL (≈ 19.7 µM); in data set [7], 12.5 µg/mL (≈ 19.7 µM); in data set [8], 0.39 µg/mL (≈ 0.615 µM). The minimal inhibitory concentration (MIC) came to 6.25 µg/mL (≈ 9.86 µM) with Serratia No. 75 [9] and 3.13 µg/mL (≈ 4.94 µM) with Escherichia coli No. 37 [10].

For `O=C(O)C1=C(CSc2cnn[nH]2)CSC2C(NC(=O)[C@H](NC(=O)c3cnc4cccnc4c3O)c3ccccc3)C(=O)N12` (stereo partly drawn) [Example 4, 7-[d-α-(4-hydroxy-1,5-naphthyridine-3-carboxyamido)-α-phenylacetamido]-3-(1,2,3-triazole-5-yl)thiomethyl-3-cephem-4-carboxylic acid], in [1], the half-life came to 30 min. In data set [1], the Cmax was found to be 26000 ng/mL. Moreover, the ED50 was 45 mg/kg with Escherichia coli No. 37 [2], 30 mg/kg in the data set on Pseudomonas aeruginosa T [3], 30 mg/kg in data set [4] and 30 mg/kg in the data set with Serratia No. 75 [11]. For the same compound, the MIC is 1.56 µg/mL (≈ 2.52 µM) against Escherichia coli NIHJ; 3.13 µg/mL (≈ 5.06 µM) in data set [5]; 25 µg/mL (≈ 40.4 µM) against Serratia No. 72; 12.5 µg/mL (≈ 20.2 µM) in the data set with Pseudomonas aeruginosa T [6]; 25 µg/mL (≈ 40.4 µM) in data set [7]; 1.56 µg/mL (≈ 2.52 µM) in data set [8]. Besides, the MIC against Serratia No. 75 [9] amounted to 12.5 µg/mL (≈ 20.2 µM); against Escherichia coli No. 37 [10], 6.25 µg/mL (≈ 10.1 µM).
